According to patent US20060154910A1, “Use of steroids to treat ocular disorders” (priority 2003, published 2006):

Experiments:
[1] = system: patients with documented glucocorticoid induced ocular hypertension; assay: Topical anecortave acetate in patients with glucocorticoid induced ocular hypertension (IOP); assay type: in vivo, human; details: patients (n=15), 1% eye drops topically three times per day for up to 12 weeks, glucocorticoid medication continued; reduced from 29 mm Hg; FIG. 1
Experimental: Patients (η=15) with documented glucocorticoid induced ocular hypertension were treated topically with 1% anecortave acetate eye drips three times per day for up to 12 weeks. The patients continued to receive their glucocorticoid medication.

rabbits = assay: Rabbit dexamethasone acetate induced IOP elevation, topical ocular anecortave acetate; assay type: in vivo; details: for IOP change versus vehicle treated group: topical ocular three times a day for 2 weeks, rabbits on weekly subTenon's dexamethasone acetate 1 mg/kg, FIG. 2
Experimental: Three groups of rabbits received weekly subTenon's injections of dexamnethasone acetate (1 mg/kg) for 4 weeks. After two weeks, the IOPs of all three groups measured approximately […]. The rabbits were then treated with vehicle, 0.1% anecortave acetate, a 1% anecortave acetate by topical ocular dosing three times a day for the remaining 2 weeks. The IOP continued to increase in the vehicle treated group.

Row | Compound | IOP after anecortave acetate treatment [1] | IOP change versus vehicle treated group (rabbits; 0.1% anecortave acetate) | IOP change versus vehicle treated group (rabbits; 1% anecortave acetate) | IOP after two weeks of glucocorticoid injections (rabbits; rabbits, weekly subTenon's injections 1 mg/kg, after two weeks, all three groups)
1 | CC(=O)OCC(=O)[C@@]1(O)CC[C@H]2[C@@H]3CCC4=CC(=O)CC[C@]4(C)C3=CC[C@@]21C [anecortave acetate, 4,9(11)-pregnadien-17α,21-diol-3,20dione-21-acetate] | 19-22 mm Hg | significantly lowered | significantly lowered | –
2 | CC(=O)OCC(=O)[C@@]1(O)[C@H](C)C[C@H]2[C@@H]3CCC4=CC(=O)C=C[C@]4(C)[C@@]3(F)[C@@H](O)C[C@@]21C [dexamnethasone acetate, dexamethasone acetate, reference compound] | – | – | – | approximately 5 mm Hg
